Compound	melting point [°C]
O=Cc1ccc(C#Cc2ccc(Cl)cc2)cc1	123
COc1ccc(OC2COc3ccc(O)cc3C2O)cc1 (stereo not given)	187 to 189
CC(=O)n1nc(C)c(Oc2cc(Cl)cc(C#N)c2)c1C	< 60
CC1(C)NCC(O)(c2ccccc2)CN1	108
O=C(NC(CS)Cc1ccccc1)N1CCN(c2cccc(C(F)(F)F)c2)CC1 (single isomer, unassigned; (+))	130 to 132
COc1cc(OCC(O)CN2CCN(c3ccccc3NC(C)=O)CC2)cc(OC)c1OC (stereo not given)	128 to 130
O=C1NCC=NN1c1cc(Cl)cc(Cl)c1	179 to 181
COc1cc(OC)cc(Oc2nc(N)n3nc(-c4ccco4)nc3n2)c1	248 to 250
COc1cc(C(=O)CCCC2CCCCC2)c(OC)cc1C	53.5 to 54.5
CC(C)(C)C1c2ccccc2-c2ccccc2N1S(=O)(=O)c1ccc(O)cc1 (stereo not given)	187 to 189
C[Si](C)(C)C#Cc1cnn2c(C(F)(F)F)cc(-c3ccc(C(F)(F)F)cc3)nc12	136
C[C@H]1COC(=O)N1c1nc(-c2ccc(C#N)cc2)cs1	205 to 207
CC1(C)c2cc(C#N)ccc2OC1Cl (stereo not given)	105 to 106
CCCCc1nc(CO)c(Sc2ccccc2)n1Cc1ccc(-c2ccccc2C(=O)O)cc1	220
O=S(=O)(Nc1ccccc1O)c1cc(S(=O)(=O)Nc2ccccc2O)c2cc(O)ccc2c1	118 to 120
O=C1NCCc2[nH]c3ccccc3c21	212 to 215
CCOC(=O)Cn1c2c(c3ccc(Cl)c(Cl)c31)CCN(C(=O)OC(C)(C)C)CC2	132 to 135
C#CCN(C)c1c(-c2c(F)cc(F)cc2F)c(C#N)nc2ncnn12	147
CC1(C)C2C=CC3(C)C(C2)C(=O)CCC13O[Si](C)(C)C (stereo not given)	73 to 76
COC(=O)c1sc2c(c1O)CCC2	73 to 75
C=COC(=O)n1c(S(=O)Cc2ccc(C)cn2)nc2cscc21 (stereo not given)	162
O=C(O)COC1CCN(Cc2ccc3c(c2)Nc2nccnc2S3)CC1	204 to 207

Compound	melting point [°C]
CSc1ccc(C2NC(C(=O)O)C(C)(C)S2)cc1 (stereo not given)	150 to 152
N#CC1c2cc(Cl)c(Cl)cc2C=CN1C(=O)c1ccccc1 (stereo not given)	194 to 196
Cc1c[nH]c(Cc2ccccc2NC(=O)N2CCN(C)CC2)n1	177 to 179
CC(C)(C)c1cc(C=C2CCNC2=O)cc(C(C)(C)C)c1O	216 to 218
CC(O)CNCc1nc2cc(-c3ccccc3)nnc2c2ccccc12 (stereo not given)	161 to 162
CCCOc1cc(C)c(C(=O)O)c(OCc2ccc(OCCc3nc(-c4ccccc4)oc3C)cc2)c1	50 to 52
CCOc1nc(NCc2ccncc2)nc(Nc2ccc3[nH]c(=O)[nH]c3c2)n1	210 to 212
CC(C)C1(C)NC(c2nccc(O)c2C(=O)O)=NC1=O (stereo not given)	210 to 211
CN1CCC(c2c[nH]c3ccc(NS(=O)(=O)c4ccc(I)cc4)cc23)CC1	> 250
C#CCOc1cc(NC(=O)CC(CC(=O)O)C(F)(F)F)ccc1Cl (stereo not given)	128 to 130
O=S1(=O)NC(C2CCCCC2)=Nc2cccc(-c3ccccn3)c21	200 to 203
CCOC(=O)COc1cc2c(c(Cl)c1Cl)C(=O)C(CC)C2 (stereo not given)	116 to 118
COc1ccc(C(O)CN2CCNC2=O)cc1OC (stereo not given)	166
COc1cc(C)c(C(=O)c2c(OC)ccc(C(F)(F)F)c2C)c(OC)c1OC	95 to 96
O=C(C#Cc1ccc(CCN2CCCC2)cc1)Nc1ccc(-c2ccccc2)cc1	180 to 189
CC1CCCCC1C(=O)Nc1ccc(-c2cnc(-c3ccc(NC(=O)c4ccccn4)cc3)[nH]2)cc1 (stereo not given)	227 to 229
COc1ccc(N2CCN(c3ccc(-n4cn[nH]c4=O)cc3)CC2)cc1	300
Cc1oc(-c2ccccc2)nc1CCOc1ccc(CCC(=O)O)cc1	142 to 144
CC1(C)Oc2cccnc2C2OC21 (stereo not given)	65 to 67
C=CCN(CC=C)c1nc(NC(C)=O)n2oc(=O)nc2n1	164 to 165
COC(=O)C(Oc1ccc(Cl)cc1)c1ccc(OCOc2ccc(Cl)cc2)cc1 (stereo not given)	64 to 65
CCCCCCCCCCc1ccc2cc(OC)ccc2c1	48.6 to 49.3

Compound	melting point [°C]
Cc1cc(C(=O)CCCC(=O)c2cc(C)c(O)c(C(C)(C)C)c2)cc(C(C)(C)C)c1O	156 to 158
CCN(CC)c1c(Cl)cc(-n2c(C(F)(F)F)nn(C)c2=S)cc1Cl	128 to 130
COC(=O)Cc1n[nH]c2ccccc12	146
CSc1nnc(Cc2cccnc2)c(=O)[nH]1	215 to 216
O=c1nc(-c2cccc(Sc3ccncc3)n2)sc2ccccc12	245 to 246
COCCN1CCc2ccc(Nc3ncc(Cl)c(N[C@@H]4CCCC[C@H]4NC(=O)C(F)(F)F)n3)cc2CC1	180 to 182
COc1cc(C)c(C=CC(C)=CC=CC(C)=CC(=O)O)c(C)c1	207 to 208
Cc1ccc(S(=O)(=O)N(CCN=[N+]=[N-])CCN=[N+]=[N-])cc1	47 to 48
CC(C)Oc1cc(Oc2ccc(S(C)(=O)=O)cn2)cc2cc(C3=NCC(CC(C)(C)O)S3)[nH]c12 (stereo not given)	151 to 153
COc1ccc(C)nc1I	45 to 50
CCn1cc(C(=O)O)c(=O)c2cc(F)c(N3CCNC(CN(C)C)C3)cc21 (stereo not given)	148 to 150
CS(=O)(=O)N1CCC(NC(=O)N(CCCN2CCC(Cc3ccccc3)CC2)c2ccccc2)CC1	158 to 160
COc1cc(CN[C@@H](C(=O)N[C@H](C(=O)NCc2ccc(OC)cc2O)C(C)C)[C@H](O)[C@H](Cc2ccccc2)NC(=O)OC(C)(C)C)cc(OC)c1	138
CCOC(=O)C1=Cc2cc(Cl)cc(C)c2NC1C(F)(F)F (stereo not given)	154 to 155
O=CNCc1cccc(-c2ccc(Br)cc2)n1	115 to 119
CC(=O)OC1CSC(Oc2ccc(-c3cccnc3)cc2)C(OC(C)=O)C1OC(C)=O (stereo not given)	150
CC(=O)C1C(Cl)CC2C3CCC4CC(O)C(Cl)CC4(C)C3C(=O)CC21C (stereo not given)	192 to 194
Cc1cccc2n[nH]c(=O)n12	182 to 183
CCCCCCCCOC(=O)C(=C1SCCS1)c1cccc(C(F)(F)F)c1	42 to 43
O=C(NC(=O)c1c(Cl)cccc1Cl)Nc1ccc(Br)cn1	228 to 230
CC1(C)CC(=C(c2ccc(O)cc2)c2ccc(OCCCC(=O)O)cc2)CC(C)(C)C1	203 to 204

Continued, values first:

melting point [°C]	Compound
115 to 117	CN1C(=O)CCN(c2ccc(C(F)(F)F)cc2)C1=O
172 to 175	O=S(=O)(c1ccccc1)n1cnc(-c2ccc(F)cc2)c1-c1ccc(F)cc1
71.1	CC(Br)c1ccc(C(=O)c2cccs2)cc1 (stereo not given)
115 to 117	CC(=O)Oc1ccc(CC2SC(=O)NC2=O)cc1 (stereo not given)
241 to 243	CC1CCc2cccc3c2N1C(=O)C3=O (stereo not given)
229 to 230	N#Cc1cccc(NC(=O)c2cc(-c3ccc(F)cc3F)ccc2O)c1
216 to 217	Cc1ccc(Cn2c3c(c4cc(-c5cccc(C)c5)ccc42)C(=O)C(=O)OC3)cc1
179 to 181	Cn1nc(-c2ccc(Cl)c(Cl)c2)c2ccccc2c1=O
> 250	NC(=O)c1nc(-c2cccc(O)c2)nc2c1[nH]c(=O)n2-c1cccc2c1CCCC2
313 to 318	Cn1ccc2c3c(c(C(=O)O)cc21)C(=O)NC3=O
165 to 167	CC(C)c1ccc(-c2nc(-c3cccc(C(=O)O)c3)ns2)cc1
131 to 132	Cn1nnc(-c2ccc3c(c2)c(C2=CCN(CCc4nnn[nH]4)CC2)cn3-c2ccc(F)cc2)n1
89 to 90	CN=C1c2ccccc2CCc2ccccc21
109 to 110	CC(=O)c1cc(-c2cccc(F)c2)c(=O)n2c1-c1sccc1CC2
194 to 196	CC(C)(C)NCc1ccc(COc2cccc3c2CN(C2CCC(=O)NC2=O)C3=O)cc1 (stereo not given)
95	COc1ccc(C2CCc3cc(OC)ccc3C2CCO)cc1 (stereo not given)
133	CC(C(=O)O)c1cccc(C(=O)c2cc3sccc3s2)c1 (stereo not given)
91 to 93	CC(=O)c1cc(C=O)c2occc2c1

melting point [°C]	Compound
190 to 192	COc1cc(C)nc(NC(=O)NS(=O)(=O)c2ccsc2C2=CCCCC2)n1
135 to 136	N#CCCNC(=O)c1cccc(-c2ccc3c(c2)N(Cc2ccc(Cl)c(Cl)c2)CC3)c1
151 to 154	Cc1ccc([C@@H]2c3c(C)c(N4C(=O)CC(c5ccc(F)cc5)CC4=O)c(C)c(C)c3OC2(C)C)cc1
137 to 138	CCN1C(=O)CCc2cnc(Nc3ccccc3)cc21
215 to 216	O=C(O)c1csnc1-c1cccc(Cl)c1
136 to 137	CC(C)c1nc(-c2ccccc2)c(F)c(-c2ccc(F)cc2)c1C=O
76 to 86	Cc1noc(NS(=O)(=O)c2ccsc2C(=O)Nc2ccc(C(C)(C)C)cc2)c1Br
197 to 199	CC(C)NC(=O)c1nn(-c2ccc(Cl)cc2)c(=O)c2c(N)scc12
208 to 210	O=C(Nc1ccc2cc(CN3CCCC3)cnc2c1)c1ccc(-c2ccccc2)nc1
145 to 147	O=C(Nc1ccccc1Br)OCc1cn(-c2cc3cc(C(=O)O)c(=O)[nH]c3cc2C(F)(F)F)cn1
120 to 122	C=C(c1ccc(-n2cncn2)nc1)C1(c2ccc(F)cc2F)CO1 (stereo not given)
196	CN1C(=O)c2cnc(-c3ccccc3)nc2N(C(=O)CN2CCCC2)c2ccccc21
212 to 213	CCN1CCN(c2ccnc(-c3nc(=O)c4ccccc4s3)c2)C1=O
245 to 247	c1cnn(Cc2ccc3c(c2)-c2[nH]nc(-c4ccsc4)c2C3)c1
87 to 89	CCCCN(C)C(=O)CS(=O)CCCCCOc1ccc(C2=C(c3ccccc3)CCCc3cc(O)ccc32)cc1 (stereo not given)
248 to 250	Nc1c(-c2ccc(-c3ccccc3F)cc2)nc2ccc(F)cc2c1C(=O)O
129 to 131	COc1cc2c(-c3ccnc(Cl)c3)c(CO)c(CO)cc2cc1OC(C)C

— a melting point compilation (Tetko et al.; mined from patent text by program, amines drawn as free bases though some values may be those of a salt)
